Reference: ChEMBL document CHEMBL5678818, “Discovery of potent SOS1 inhibitors that block RAS activation via disruption of the RAS-SOS1 interaction” (Proc Natl Acad Sci U S A, 2019)

Tests used:
[1] = target: Calcium/calmodulin-dependent protein kinase type 1D (Homo sapiens) (UniProt Q8IU85); test: Inhibition of CAMK1D (unknown origin) assessed as residual activity at 1000 nM by KINOMEscan analysis relative to control
[2] = target: Cyclin-dependent kinase 4/cyclin D1 (Homo sapiens) (UniProt P11802+P24385); test: Inhibition of CDK4-cyclin D1 (unknown origin) assessed as residual activity at 1000 nM by KINOMEscan analysis relative to control; format: protein-complex assay
[3] = target: Ribosomal protein S6 kinase alpha-5 (Homo sapiens) (UniProt O75582); test: Inhibition of N-terminal RPS6KA5 kinetic domain 1 (unknown origin) assessed as residual activity at 1000 nM by KINOMEscan analysis relative to control
[4] = target: Serine/threonine-protein kinase WNK3 (Homo sapiens) (UniProt Q9BYP7); test: Inhibition of WNK3 (unknown origin) assessed as residual activity at 1000 nM by KINOMEscan analysis relative to control
[5] = target: Cyclin-dependent kinase-like 3 (Homo sapiens) (UniProt Q8IVW4); test: Inhibition of CDKL3 (unknown origin) assessed as residual activity at 1000 nM by KINOMEscan analysis relative to control
[6] = target: Serine/threonine-protein kinase SIK2 (Homo sapiens) (UniProt Q9H0K1); test: Inhibition of SIK2 (unknown origin) assessed as residual activity at 1000 nM by KINOMEscan analysis relative to control
[7] = test system: Epidermal growth factor receptor (Homo sapiens), P00533 [L861Q]; test: Inhibition of EGFR L861Q mutant (unknown origin) assessed as residual activity at 1000 nM by KINOMEscan analysis relative to control
[8] = target: Glycogen synthase kinase-3 alpha (Homo sapiens) (UniProt P49840); test: Inhibition of GSK3A (unknown origin) assessed as residual activity at 1000 nM by KINOMEscan analysis relative to control
[9] = target: Casein kinase I isoform gamma-1 (Homo sapiens) (UniProt Q9HCP0); test: Inhibition of CSNK1G1 (unknown origin) assessed as residual activity at 1000 nM by KINOMEscan analysis relative to control
[10] = target: Cyclin-dependent kinase 8 (Homo sapiens) (UniProt P49336); test: Inhibition of CDK8 (unknown origin) assessed as residual activity at 1000 nM by KINOMEscan analysis relative to control
[11] = target: Tyrosine-protein kinase Lck (Homo sapiens) (UniProt P06239); test: Inhibition of LCK (unknown origin) assessed as residual activity at 1000 nM by KINOMEscan analysis relative to control
[12] = target: T1, Dual specificity mitogen-activated protein kinase kinase 7 (Homo sapiens) (UniProt O14733); test: Inhibition of MKK7 (unknown origin) assessed as residual activity at 1000 nM by KINOMEscan analysis relative to control
T1 sequence (whole entry): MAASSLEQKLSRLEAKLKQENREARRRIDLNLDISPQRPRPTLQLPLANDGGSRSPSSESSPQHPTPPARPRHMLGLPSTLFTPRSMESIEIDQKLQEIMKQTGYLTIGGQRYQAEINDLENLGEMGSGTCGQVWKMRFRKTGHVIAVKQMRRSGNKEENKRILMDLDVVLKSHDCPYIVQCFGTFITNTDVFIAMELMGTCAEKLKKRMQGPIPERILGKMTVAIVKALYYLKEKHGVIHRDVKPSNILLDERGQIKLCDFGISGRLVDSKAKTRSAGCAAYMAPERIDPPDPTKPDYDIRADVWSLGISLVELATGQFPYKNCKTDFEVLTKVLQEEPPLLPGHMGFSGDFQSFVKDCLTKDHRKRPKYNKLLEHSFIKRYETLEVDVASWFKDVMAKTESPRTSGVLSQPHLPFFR

[13] = target: Homeodomain-interacting protein kinase 3 (Homo sapiens) (UniProt Q9H422); test: Inhibition of HIPK3 (unknown origin) assessed as residual activity at 1000 nM by KINOMEscan analysis relative to control
[14] = test system: ALK tyrosine kinase receptor (Homo sapiens), Q9UM73 [C1156Y]; test: Inhibition of ALK C1156Y mutant (unknown origin) assessed as residual activity at 1000 nM by KINOMEscan analysis relative to control
[15] = target: Mitogen-activated protein kinase 11 (Homo sapiens) (UniProt Q15759); test: Inhibition of p38-beta (unknown origin) assessed as residual activity at 1000 nM by KINOMEscan analysis relative to control
[16] = target: T2, Calcium/calmodulin-dependent protein kinase type IV (Homo sapiens) (UniProt Q16566); test: Inhibition of CAMK4 (unknown origin) assessed as residual activity at 1000 nM by KINOMEscan analysis relative to control
T2 sequence (whole entry): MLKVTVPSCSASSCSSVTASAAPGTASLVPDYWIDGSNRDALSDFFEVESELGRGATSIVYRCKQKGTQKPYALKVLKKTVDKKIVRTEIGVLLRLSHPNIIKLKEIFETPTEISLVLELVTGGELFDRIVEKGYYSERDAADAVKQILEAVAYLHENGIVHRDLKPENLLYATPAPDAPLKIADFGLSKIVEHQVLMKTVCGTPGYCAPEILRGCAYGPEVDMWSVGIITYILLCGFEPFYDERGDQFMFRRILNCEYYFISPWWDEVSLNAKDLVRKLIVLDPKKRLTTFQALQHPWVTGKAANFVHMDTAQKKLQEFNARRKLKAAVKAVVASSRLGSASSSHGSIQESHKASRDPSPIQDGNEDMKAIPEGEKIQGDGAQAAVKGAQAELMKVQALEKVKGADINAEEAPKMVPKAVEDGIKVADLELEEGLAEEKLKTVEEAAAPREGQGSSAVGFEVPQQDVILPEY

[17] = target: AP2-associated protein kinase 1 (Homo sapiens) (UniProt Q2M2I8); test: Inhibition of AAK1 (unknown origin) assessed as residual activity at 1000 nM by KINOMEscan analysis relative to control

Chain of Ribosomal protein S6 kinase alpha-5 (Homo sapiens) (O75582 whole entry, looked up, the tested form may be a part): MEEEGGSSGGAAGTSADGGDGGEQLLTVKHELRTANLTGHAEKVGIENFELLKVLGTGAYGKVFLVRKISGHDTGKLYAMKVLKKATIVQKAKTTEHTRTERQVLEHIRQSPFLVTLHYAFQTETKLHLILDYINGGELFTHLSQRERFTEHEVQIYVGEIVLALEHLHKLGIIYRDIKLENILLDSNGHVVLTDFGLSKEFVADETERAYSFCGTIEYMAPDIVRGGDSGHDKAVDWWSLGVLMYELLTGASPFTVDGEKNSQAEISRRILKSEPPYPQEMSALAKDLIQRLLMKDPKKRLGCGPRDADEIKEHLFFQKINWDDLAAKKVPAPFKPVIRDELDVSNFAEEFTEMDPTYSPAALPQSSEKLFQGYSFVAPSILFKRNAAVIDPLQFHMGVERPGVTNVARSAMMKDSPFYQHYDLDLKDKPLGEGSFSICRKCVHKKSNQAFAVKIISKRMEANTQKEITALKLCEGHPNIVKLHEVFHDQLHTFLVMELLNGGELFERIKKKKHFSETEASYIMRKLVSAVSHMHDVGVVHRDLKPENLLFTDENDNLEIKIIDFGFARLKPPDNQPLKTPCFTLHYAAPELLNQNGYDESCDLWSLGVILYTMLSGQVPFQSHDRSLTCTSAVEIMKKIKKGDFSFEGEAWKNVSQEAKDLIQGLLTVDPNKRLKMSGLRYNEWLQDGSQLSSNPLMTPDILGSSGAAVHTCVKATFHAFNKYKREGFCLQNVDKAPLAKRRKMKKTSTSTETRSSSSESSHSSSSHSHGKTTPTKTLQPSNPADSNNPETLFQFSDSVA
Chain of Glycogen synthase kinase-3 alpha (Homo sapiens) (P49840 2-483 limits assumed): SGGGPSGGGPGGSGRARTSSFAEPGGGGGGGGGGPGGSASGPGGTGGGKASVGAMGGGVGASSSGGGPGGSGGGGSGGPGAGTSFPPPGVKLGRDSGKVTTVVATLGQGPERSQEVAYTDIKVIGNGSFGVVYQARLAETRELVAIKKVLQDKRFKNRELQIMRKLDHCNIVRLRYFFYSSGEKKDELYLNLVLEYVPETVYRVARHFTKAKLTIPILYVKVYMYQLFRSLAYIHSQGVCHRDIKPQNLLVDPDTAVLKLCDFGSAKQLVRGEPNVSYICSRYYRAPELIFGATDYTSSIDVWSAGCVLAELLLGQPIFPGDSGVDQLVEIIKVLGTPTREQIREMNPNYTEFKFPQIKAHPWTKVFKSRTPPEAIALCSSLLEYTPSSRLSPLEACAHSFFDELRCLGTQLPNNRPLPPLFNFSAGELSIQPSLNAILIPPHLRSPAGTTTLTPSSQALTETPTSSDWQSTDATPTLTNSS
Chain of Serine/threonine-protein kinase WNK3 (Homo sapiens) (Q9BYP7 whole entry): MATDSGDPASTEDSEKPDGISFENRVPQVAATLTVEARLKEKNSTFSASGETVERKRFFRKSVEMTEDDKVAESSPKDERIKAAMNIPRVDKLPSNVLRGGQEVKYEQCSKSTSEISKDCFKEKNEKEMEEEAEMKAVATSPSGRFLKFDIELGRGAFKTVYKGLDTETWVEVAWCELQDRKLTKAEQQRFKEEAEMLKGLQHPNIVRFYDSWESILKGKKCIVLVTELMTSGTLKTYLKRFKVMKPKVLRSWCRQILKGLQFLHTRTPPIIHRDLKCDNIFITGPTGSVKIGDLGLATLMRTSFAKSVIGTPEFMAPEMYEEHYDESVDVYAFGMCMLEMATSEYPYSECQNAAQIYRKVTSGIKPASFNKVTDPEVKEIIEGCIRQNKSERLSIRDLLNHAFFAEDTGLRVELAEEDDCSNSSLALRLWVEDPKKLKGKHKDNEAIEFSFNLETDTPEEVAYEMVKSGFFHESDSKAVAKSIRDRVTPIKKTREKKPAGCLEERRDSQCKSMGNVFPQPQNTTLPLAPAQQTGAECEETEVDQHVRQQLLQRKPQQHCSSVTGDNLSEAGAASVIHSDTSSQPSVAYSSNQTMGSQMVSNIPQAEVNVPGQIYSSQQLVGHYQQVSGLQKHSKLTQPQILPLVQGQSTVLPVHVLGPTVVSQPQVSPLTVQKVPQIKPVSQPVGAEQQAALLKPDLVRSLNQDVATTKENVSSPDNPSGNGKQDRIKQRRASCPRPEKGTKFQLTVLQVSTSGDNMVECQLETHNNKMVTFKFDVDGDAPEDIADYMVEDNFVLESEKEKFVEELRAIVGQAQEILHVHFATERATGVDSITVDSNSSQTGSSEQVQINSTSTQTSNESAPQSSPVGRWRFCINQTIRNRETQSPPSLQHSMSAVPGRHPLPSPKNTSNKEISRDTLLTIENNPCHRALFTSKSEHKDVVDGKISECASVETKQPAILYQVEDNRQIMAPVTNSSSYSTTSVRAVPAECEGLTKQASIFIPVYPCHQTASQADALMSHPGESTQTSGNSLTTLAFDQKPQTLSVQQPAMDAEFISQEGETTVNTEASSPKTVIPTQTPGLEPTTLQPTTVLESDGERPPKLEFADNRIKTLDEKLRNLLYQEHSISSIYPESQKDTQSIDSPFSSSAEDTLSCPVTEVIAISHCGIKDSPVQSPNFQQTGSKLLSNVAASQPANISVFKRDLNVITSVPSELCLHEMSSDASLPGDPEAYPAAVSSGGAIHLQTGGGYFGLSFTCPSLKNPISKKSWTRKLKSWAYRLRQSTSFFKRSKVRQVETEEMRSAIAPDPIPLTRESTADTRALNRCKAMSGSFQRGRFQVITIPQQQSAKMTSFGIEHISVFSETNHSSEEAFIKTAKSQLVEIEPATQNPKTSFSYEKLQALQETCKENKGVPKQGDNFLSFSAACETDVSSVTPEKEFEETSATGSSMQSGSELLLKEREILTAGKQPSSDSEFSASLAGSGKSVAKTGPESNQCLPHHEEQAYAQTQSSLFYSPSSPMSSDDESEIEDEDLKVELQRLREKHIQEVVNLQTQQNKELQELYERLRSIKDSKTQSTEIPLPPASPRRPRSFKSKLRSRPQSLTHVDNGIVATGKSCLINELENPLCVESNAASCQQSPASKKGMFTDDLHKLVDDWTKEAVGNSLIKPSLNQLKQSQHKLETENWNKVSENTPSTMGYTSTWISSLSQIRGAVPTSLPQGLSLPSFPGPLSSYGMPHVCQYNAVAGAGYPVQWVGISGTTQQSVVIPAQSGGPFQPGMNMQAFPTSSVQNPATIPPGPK
Chain of Tyrosine-protein kinase Lck (Homo sapiens) (P06239 2-509 limits assumed): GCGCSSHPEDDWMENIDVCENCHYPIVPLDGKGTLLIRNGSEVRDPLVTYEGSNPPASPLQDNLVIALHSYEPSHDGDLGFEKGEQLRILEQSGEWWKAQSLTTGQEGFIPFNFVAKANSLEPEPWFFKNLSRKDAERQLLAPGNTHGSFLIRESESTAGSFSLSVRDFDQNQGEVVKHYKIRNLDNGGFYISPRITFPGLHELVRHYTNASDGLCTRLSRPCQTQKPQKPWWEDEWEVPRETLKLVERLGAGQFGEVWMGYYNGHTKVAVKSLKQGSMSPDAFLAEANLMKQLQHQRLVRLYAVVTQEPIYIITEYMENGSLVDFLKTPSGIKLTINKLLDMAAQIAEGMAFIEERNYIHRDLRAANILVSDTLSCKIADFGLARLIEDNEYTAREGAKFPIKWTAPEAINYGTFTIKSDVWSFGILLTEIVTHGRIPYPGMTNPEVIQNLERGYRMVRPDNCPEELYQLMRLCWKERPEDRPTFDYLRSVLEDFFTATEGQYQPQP
Chain of Calcium/calmodulin-dependent protein kinase type 1D (Homo sapiens) (Q8IU85 whole entry, looked up): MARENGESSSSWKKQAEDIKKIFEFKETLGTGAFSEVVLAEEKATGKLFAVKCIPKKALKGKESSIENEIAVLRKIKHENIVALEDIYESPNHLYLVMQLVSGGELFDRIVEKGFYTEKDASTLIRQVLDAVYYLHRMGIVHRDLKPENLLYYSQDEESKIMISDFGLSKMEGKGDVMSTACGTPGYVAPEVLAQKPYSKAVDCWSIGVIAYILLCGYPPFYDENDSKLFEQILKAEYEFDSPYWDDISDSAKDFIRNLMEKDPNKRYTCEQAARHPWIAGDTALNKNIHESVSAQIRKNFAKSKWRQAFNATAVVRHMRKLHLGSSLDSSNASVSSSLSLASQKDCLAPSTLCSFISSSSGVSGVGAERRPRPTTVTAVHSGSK
Chain of Casein kinase I isoform gamma-1 (Homo sapiens) (Q9HCP0 whole entry, looked up, canonical isoform): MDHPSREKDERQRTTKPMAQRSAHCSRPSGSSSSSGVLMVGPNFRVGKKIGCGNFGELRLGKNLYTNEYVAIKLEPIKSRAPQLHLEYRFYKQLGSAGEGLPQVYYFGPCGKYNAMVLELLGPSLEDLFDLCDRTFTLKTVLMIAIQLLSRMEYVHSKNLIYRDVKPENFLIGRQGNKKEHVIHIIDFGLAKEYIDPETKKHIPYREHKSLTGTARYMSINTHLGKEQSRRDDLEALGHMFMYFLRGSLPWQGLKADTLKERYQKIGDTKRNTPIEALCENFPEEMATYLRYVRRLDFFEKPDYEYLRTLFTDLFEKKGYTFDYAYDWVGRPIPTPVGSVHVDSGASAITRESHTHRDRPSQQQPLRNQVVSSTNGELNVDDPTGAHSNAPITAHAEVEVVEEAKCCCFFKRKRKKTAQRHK
Chain of Cyclin-dependent kinase 8 (Homo sapiens) (P49336 whole entry): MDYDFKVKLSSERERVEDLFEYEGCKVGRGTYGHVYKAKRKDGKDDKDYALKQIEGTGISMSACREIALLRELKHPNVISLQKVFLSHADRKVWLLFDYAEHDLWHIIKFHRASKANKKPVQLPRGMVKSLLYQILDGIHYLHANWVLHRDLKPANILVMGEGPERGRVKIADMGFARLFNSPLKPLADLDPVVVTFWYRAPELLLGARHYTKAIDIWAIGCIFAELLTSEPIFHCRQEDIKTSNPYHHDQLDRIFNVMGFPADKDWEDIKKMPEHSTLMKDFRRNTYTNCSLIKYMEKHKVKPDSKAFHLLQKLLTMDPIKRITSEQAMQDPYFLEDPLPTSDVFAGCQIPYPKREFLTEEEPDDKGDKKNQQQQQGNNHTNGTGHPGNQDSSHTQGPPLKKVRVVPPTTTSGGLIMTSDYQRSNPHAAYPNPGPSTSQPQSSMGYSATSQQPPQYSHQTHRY

Structure (SMILES)	Activity [1]	Activity [2]	Activity [3]	Activity [4]	Activity [5]	Activity [6]	Activity [7]	Activity [8]	Activity [9]	Activity [10]	Activity [11]	Activity [12]	Activity [13]	Activity [14]	Activity [15]	Activity [16]	Activity [17]
COc1cc2ncnc(N[C@H](C)c3cccc4ccccc34)c2cc1OC	81%	98%	99%	99%	84%	100%	1.1%	70%	100%	93%	70%	77%	88%	86%	96%	100%	100%
COc1cc2nc(C)nc(N[C@H](C)c3cccc(-c4cn[nH]c4)c3)c2cc1OC	68%	100%	92%	93%	87%	89%	86%	95%	96%	91%	56%	98%	69%	80%	97%	92%	100%
